This passage reports IC50 results from article PMC8147764, “Heterologous Expression, Engineering and Characterization of a Novel Laccase of Agrocybe pediades with Promising Properties as Biocatalyst” (Journal of Fungi, 2021).

The structures appear in SMILES notation.

In this test the target is T1, ApL (A. pediades laccase) (Agrocybe pediades, UniProt A0A8H4QKE8, V194E/N433D).
T1 construct: gene D9613_012768
The settings on record: read-out: IC50 (mM or v/v % ^a); DM variant; ABTS about 3 mM, citrate-phosphate pH 3; fluoride, TNC site.

`F` [NaF]: the IC50 was determined as 0.051 ± 0.002 mM.
